Results reported in article PMC12142043, “Cell-based high-content approach for SARS-CoV-2 neutralization identifies unique monoclonal antibodies and PI3K pathway inhibitors” (Frontiers in Cell and Developmental Biology, 2025).
Structures can show the parent of a compound that is named as a salt.

Test system: SARS-CoV-2 (USA-WA1/2020) in Calu-3 cells
Type: cell-based
Details: Calu-3, 48 h; for dsRNA signal, AU High: high dose (10 µM); for dsRNA signal, AU Low: low dose (100 nM)

SMILES | dsRNA signal, AU High | dsRNA signal, AU Low
Cn1cc(C2=C(c3ccc(Cl)cc3Cl)C(=O)NC2=O)c2ccccc21 [SB 216763] | 596.7 AU | 53506.5 AU
COc1nccc(-c2c(-c3ccc(F)cc3)ncn2C2CCC(O)CC2)n1 (stereo not drawn) [SB 239063] | 16458.2 AU | 15855.6 AU
NC(=O)c1ccc(-c2nc(-c3ccc4c(c3)OCO4)c(-c3ccccn3)[nH]2)cc1 [SB 431542] | 540.4 AU | 12958.4 AU
O=C(Nc1ccc2[nH]nc(-c3ccncc3)c2c1)[C@@H]1CCN(CC(=O)N2CCN(c3ccc(-c4ncccn4)cc3)CC2)C1 [SCH772984] | 21169.8 AU | 17905.7 AU
CC(C)(C)C(=O)Nc1ccc2c(c1)C(=O)C(=O)c1ccccc1-2 [SF1670] | 30745.4 AU | 12301.2 AU
CN1CCC(CNc2ccc3ncc(-c4cccc(OC(F)(F)F)c4)n3n2)CC1 [SGI-1776 free base] | 1583.1 AU | 29976.5 AU
Cn1cc(-c2ccc3nnc(Sc4ccc5ncccc5c4)n3n2)cn1 [SGX-523] | 18702.9 AU | 25732.4 AU
Oc1ccc(Nc2nc(-c3ccc(Cl)cc3)cs2)cc1 [SKI II] | 31334.0 AU | 21341.0 AU
CNC(=O)c1cc(Oc2ccc(NC(=O)c3cccc(C(F)(F)F)c3)cc2)ccn1 [SKLB610] | 126.4 AU | 8430.0 AU
N#C/C(=C(/N)Sc1ccc(N)cc1)c1ccccc1C(F)(F)F [SL-327] | 10911.9 AU | 24198.7 AU
CC(C)NC(=O)COc1cccc(-c2nc(Nc3ccc4[nH]ncc4c3)c3ccccc3n2)c1 [SLx-2119] | 20785.5 AU | 59494.3 AU
O=C1NC(=O)/C(=C/c2cccc(C(F)(F)F)c2)S1 [SMI-4a] | 0.0 AU | 12244.4 AU
O=C(Nc1cccc(Cl)c1)Nc1ncc(CCNc2ncnc3ccsc23)s1 [SNS-314 Mesylate] | 5716.5 AU | 33317.4 AU
O=C(Nc1cc(C(F)(F)F)ccc1N1CCCCC1)c1ccncc1 [SRPIN340] | 38969.9 AU | 6071.8 AU
COc1c(C)c(C(=O)c2ccc(N)c(C(=O)[O-])c2)n2ccccc12.[Na+] [SSR128129E] | 4736.0 AU | 27624.5 AU
O=S(=O)(N=Cc1c(O)ccc2ccccc12)c1cccs1 [STF 083010] | 54363.2 AU | 46405.9 AU
Cc1cc(C)c(/C=C2\C(=O)Nc3ccccc32)[nH]1 [SU5416] | 39551.1 AU | 20455.1 AU
O=C(/C=C/c1ccccc1)NC(NC(=S)Nc1ccc(Cl)cc1)C(Cl)(Cl)Cl (stereo not drawn) [Sal 003] | 58234.6 AU | 61292.8 AU
OC[C@H]1O[C@@H](OCCc2ccc(O)cc2)[C@H](O)[C@@H](O)[C@@H]1O [Salidroside] | 19295.0 AU | 56220.3 AU
C[n+]1cc2c3c(ccc2c2ccc4cc5c(cc4c21)OCO5)OCO3 [Sanguinarine chloride] | 0.0 AU | 15548.2 AU
C[n+]1cc2c3c(ccc2c2ccc4cc5c(cc4c21)OCO5)OCO3 [Sanguinarine] | 0.0 AU | 895.9 AU
O=C(O)[C@H]1O[C@@H](Oc2cc3oc(-c4ccc(O)cc4)cc(=O)c3c(O)c2O)[C@H](O)[C@@H](O)[C@@H]1O [Scutellarin] | 1769.9 AU | 52840.4 AU
N#Cc1ccc2ncnc(NCCc3ccccc3)c2c1 [Senexin A] | 30520.6 AU | 31796.6 AU
O=C(O)c1cc(O)c2c(c1)[C@@H]([C@H]1c3cc(C(=O)O)cc(O)c3C(=O)c3c(O[C@@H]4O[C@H](CO)[C@@H](O)[C@H](O)[C@H]4O)cccc31)c1cccc(O[C@@H]3O[C@H](CO)[C@@H](O)[C@H](O)[C@H]3O)c1C2=O [Sennoside B] | 3953.3 AU | 3310.7 AU
CC(C)=CC[C@@H](O)C1=CC(=O)c2c(O)ccc(O)c2C1=O [Shikonin] | 54262.1 AU | 4009.3 AU
CN1CCN(c2nc(C3=C(c4c[nH]c5ccccc45)C(=O)NC3=O)c3ccccc3n2)CC1 [Sotrastaurin (AEB071)] | 6965.2 AU | 40818.2 AU
COc1cc(N2CCC(N3CCN(C)CC3)CC2)ccc1Nc1ncc(Cl)c(Nc2ccccc2S(=O)(=O)C(C)C)n1 [TAE684 (NVP-TAE684)] | 41419.4 AU | 4182.3 AU
